Target: 5α-reductase
Assay: 5α-reductase inhibitory activity in vitro
Format: biochemical, rat
Conditions: male rats' prostate enzyme, [4-C14]-testosterone, NADPH, 60 mins at 37° C., pH 7.4
Method: 5α-reductase inhibitory activity in vitro
Inhibitory activity on 5α-reductase in vitro was measured by the following test system.
The test was carried out by making reference to the method of J. Shimazaki et al [See Endocrinical. Japon., 18, 179 (1971)].
Male rats' prostate (4 g) was homogenized with its triple volume of 0.1M HEPES buffer (pH 7.4) including 0.25M cane sugar, and was centrifuged at 3000 r.p.m. for 10 mins.
The precipitate was suspended into the buffer solution described above (10 ml), and the suspension was centrifuged at 3000 r.p.m. for 5 mins. The resulting precipitated was suspended in the buffer solution (3 ml) described above and was used as a sauce of enzyme.
A reaction mixture (total volume 0.1 ml) of [4-C^14 ]-testosterone (1.5 n mol, 1.5×10^5 cpm) NADPH (0.5 μmol) enzyme solution (0.03 ml) described above and several kinds of concentration of the compounds in the present invention was incubated for 60 mins at 37° C. Enzyme reaction was quenched by addition of a mixture (1.0 ml) of diethyl ether, petroleum ether and acetic acid (80:20:1), and the mixture was centrifuged at 3000 r.p.m. for 5 mins. The supernatant (200 μl) was spotted on silica gel thin layer plate. The spot on the plate was developed with a mixture of chloroform, methanol and acetic acid (99:0.8:0.2). Radioactivity of dihydrotestosterone generated on the plate was measured by TLC scanner of radio-autography and inhibitory ratio was calculated.

| Structure (SMILES) | IC50 [µM] |
| --- | --- |
| Cc1c(OCc2ccccc2)ccc(C(=O)Nc2ccccc2OCCCC(=O)O)c1C [2(a), 4-[2-(4-benzyloxy-2,3-dimethylbenzoylamino)phenoxy]butanoic acid] | 2.1 |
| CC(C)Cc1ccc(COc2ccc(C(=O)Nc3ccccc3OCCCC(=O)O)c3ccccc23)cc1 [2(aa), 4-[2-[4-[4-isobutylbenzyloxy)naphthalene-1-carbonylamino]phenoxy]butanoic acid] | 0.52 |
| Cc1cccc(COc2ccc(C(=O)Nc3ccccc3OCCCC(=O)O)c(C)c2C)c1 [2(c), 4-[2-[4-(3-methylbenzyloxy)-2,3-dimethylbenzoylamino]phenoxy]butanoic acid] | 1.3 |
| Cc1ccc(COc2ccc(C(=O)Nc3ccccc3OCCCC(=O)O)c(C)c2C)cc1 [2(d), 4-[2-[4-(4-methylbenzyloxy)-2,3-dimethylbenzoylamino]phenoxy]butanoic acid] | 0.98 |
| Cc1cccc(C)c1COc1ccc(C(=O)Nc2ccccc2OCCCC(=O)O)c(C)c1C [2(e), 4-[2-[4-(2,6-dimethylbenzyloxy)-2,3-dimethylbenzoylamino]phenoxy]butanoic acid] | 1.4 |
| Cc1c(OCc2ccc(Cl)cc2)ccc(C(=O)Nc2ccccc2OCCCC(=O)O)c1C [2(i), 4-[2-[4-(4-chlorobenzyloxy)-2,3-dimethylbenzoylamino]phenoxy]butanoic acid] | 2 |
| Cc1c(OCc2ccc(CC3CCC3)cc2)ccc(C(=O)Nc2ccccc2OCCCC(=O)O)c1C [2(j), 4-[2-[4-(4-cyclobutylmethylbenzyloxy)-2,3-dimethylbenzoylamino]phenoxy]butanoic] | 2.5 |
| Cc1c(OCCc2ccccc2)ccc(C(=O)Nc2ccccc2OCCCC(=O)O)c1C [2(k), 4-[2-[4-(2-phenylethoxy)-2,3-dimethylbenzoylamino]phenoxy]butanoic acid] | 2.6 |
| Cc1c(OCCCc2ccccc2)ccc(C(=O)Nc2ccccc2OCCCC(=O)O)c1C [2(l)] | 1 |
| Cc1c(OCCCCc2ccccc2)ccc(C(=O)Nc2ccccc2OCCCC(=O)O)c1C [2(m), 4-[2-[4-(4-phenylbutoxy)-2,3-dimethylbenzoylamino]phenoxy]butanoic acid] | 0.75 |
| Cc1c(OCCCCCc2ccccc2)ccc(C(=O)Nc2ccccc2OCCCC(=O)O)c1C [2(n), 4-[2-[4-(5-phenylpentyloxy)-2,3-dimethylbenzoylamino]phenoxy]butanoic acid] | 0.95 |
| CC(C)Cc1ccc(COc2ccc(C(=O)Nc3ccccc3OCCCC(=O)O)c(Cl)c2Cl)cc1 [2(x), 4-[2-[4-(4-isobutylbenzyloxy)-2,3-dichlorobenzoylamino]phenoxy]butanoic acid] | 2.8 |
| CCCc1ccc(COc2ccc(C(=O)Nc3ccccc3[S+]([O-])CCCC(=O)O)c(C)c2C)cc1 (centres unmarked) [Example 3, 4-[2-[4-(4-propylbenzyloxy)-2,3-dimethylbenzoylamino]phenylsulfinyl]butanoic acid] | 0.7 |

The next compounds have a lower IC50 than those just listed; values first:

| IC50 [µM] | Structure (SMILES) |
| --- | --- |
| 0.38 | Cc1ccccc1COc1ccc(C(=O)Nc2ccccc2OCCCC(=O)O)c(C)c1C [2(b), 4-[2-[4-(2-methylbenzyloxy)-2,3-dimethylbenzoylamino]phenoxy]butanoic acid] |
| 0.42 | CC(C)Cc1ccc(COc2ccc(C(=O)Nc3ccccc3SCCCC(=O)O)c3c2CCCC3)cc1 [2(bb), 4-[2-[4-(4-isobutylbenzyloxy)-5,6,7,8-tetrahydronaphthalene-1-carbonylamino]phenylthio]butanoic acid] |
| 0.38 | CCCc1ccc(COc2ccc(C(=O)Nc3ccccc3SCCCC(=O)O)c(C)c2C)cc1 [2(cc), 4-[2-[4-(4-propylbenzyloxy)-2,3-dimethylbenzoylamino)phenylthio]butanoic acid] |
| 0.12 | Cc1c(OC(C)c2ccc(CC(C)C)cc2)ccc(C(=O)Nc2ccccc2SCCCC(=O)O)c1C (centres unmarked) [2(dd), 4-[2-[4-[1-(4-isobutylphenyl)ethoxy]-2,3-dimethylbenzoylamino]phenylthio]butanoic acid] |
| 0.27 | CCc1ccc(COc2ccc(C(=O)Nc3ccccc3OCCCC(=O)O)c(C)c2C)cc1 [2(f), 4-[2-[4-(4-ethybenzyloxy)-2,3-dimethylbenzoylamino]phenoxy]butanoic acid] |
| 0.34 | CCCc1ccc(COc2ccc(C(=O)Nc3ccccc3OCCCC(=O)O)c(C)c2C)cc1 [2(g), 4-[2-[4-(4-propylbenzyloxy)-2,3-dimethylbenzoylamino]phenoxy]butanoic acid] |
| 0.26 | Cc1c(OCc2ccc(C(C)C)cc2)ccc(C(=O)Nc2ccccc2OCCCC(=O)O)c1C [2(h), 4-[2-[4-(4-isopropylbenzyloxy)-2,3-dimethylbenzoylamino]phenoxy]butanoic acid] |
| 0.005 | Cc1c(OC(C)c2ccc(CC(C)C)cc2)ccc(C(=O)Nc2ccccc2OCCCC(=O)O)c1C (centres unmarked) [2(o), 4-[2-[4-[1-(4-isobutylphenyl)ethoxy]-2,3-dimethylbenzoylamino]phenoxy]butanoic acid] |
| 0.011 | CCCc1ccc(C(Oc2ccc(C(=O)Nc3ccccc3OCCCC(=O)O)c(C)c2C)c2ccc(CCC)cc2)cc1 [2(p), 4-[2-[4-[bis(4-propylphenyl)methoxy]-2,3-dimethylbenzoylamino]phenoxy]butanoic acid] |
| 0.2 | Cc1c(OC(c2ccccc2)c2ccccc2)ccc(C(=O)Nc2ccccc2OCCCC(=O)O)c1C [2(q)] |
| 0.41 | CC(C)Cc1ccc(COc2ccc(C(=O)Nc3ccccc3OCCCC(=O)O)c3c2CCC3)cc1 [2(y), 4-[2-(7-(4-isobutylbenzyloxy)indane-4-carbonylamino]phenoxy]butanoic acid] |
| 0.05 | CC(C)Cc1ccc(COc2ccc(C(=O)Nc3ccccc3OCCCC(=O)O)c3c2CCCC3)cc1 [2(z), 4-[2-[4-(4-isobutylbenzyloxy)-5,6,7,8-tetrahydronaphthalene-1-carbonylamino]phenoxy]butanoic acid] |
| 0.12 | Cc1c(OCc2ccc(CC(C)C)cc2)ccc(C(=O)Nc2ccccc2OCCCC(=O)O)c1C [Example 2, 4-[2-[4-(4 isobutylbenzyloxy)-2 3-dimethylbenzoylamino]phenoxy]butanoic acid] |
